PMC4843002, “Identification of pyrazolopyridazinones as PDEδ inhibitors” (Nature Communications, 2016)

What was measured:
[1] = system: BxPC-3 cells; type: cell-based
Method: (§1) RTCA was performed using 16-well E-plates on the Dual Plate xCELLigence instrument (Roche Applied Science, Indianapolis, IN). This system measures a dimensionless parameter called cell index, which evaluates the ionic environment at an electrode/solution interface and integrates information on cell number. Depending on the cell line 5 × 10^3–1 × 10^4 cells were plated in each well of the 16-well plates in 200 μl of cell culture medium. After seeding, cells were allowed to settle for 30 min at room temperature before being inserted into the xCELLigence instrument in a humidified incubator at 37 °C with 10% CO2. For RTCA experiments assaying cells stably expressing the inducible shRNA transgene, cells were seeded onto the E-plates in medium supplemented with 200 ng ml^−1 doxycycline. For RTCA experiments, the cells were treated with Deltarasin or Deltazinone 1 after reaching a steady growth (24 h/48 h). The small-molecule inhibitors were added at indicated time points and in the indicated concentrations. […] Continuous impedance measurements were then monitored every 15 min for up to 200 h. All assays were performed in duplicates. The cell index was normalized to 1 at the time point of drug administration. […]

[2] = system: PANC-1 cells; type: cell-based
Method: as §1

[3] = molecular target: T1, A3 (h) (Homo sapiens, UniProt P0DMS8); test: Cerep binding, agonist radioligand; conditions: read-out: % Inhibition of Control Specific Binding
T1 construct: purchased Eurofins Pharma Discovery Services (CEREP diversity panel)
T1 sequence (P0DMS8 whole entry): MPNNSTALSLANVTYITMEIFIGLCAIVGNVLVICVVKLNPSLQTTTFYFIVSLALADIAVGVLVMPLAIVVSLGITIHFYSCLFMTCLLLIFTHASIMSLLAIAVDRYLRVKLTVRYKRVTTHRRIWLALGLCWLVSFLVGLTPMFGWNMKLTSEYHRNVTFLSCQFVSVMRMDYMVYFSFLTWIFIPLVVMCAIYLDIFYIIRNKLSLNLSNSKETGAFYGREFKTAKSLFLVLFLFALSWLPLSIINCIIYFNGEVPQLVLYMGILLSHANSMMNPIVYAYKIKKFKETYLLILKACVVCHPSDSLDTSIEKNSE

[4] = system: guanylyl cyclase (h) (activator effect); test: Cerep enzyme and cell-based assays; type: biochemical, human; conditions: 5 µM
[5] = system: alpha 1 (non-selective); test: Cerep binding, antagonist radioligand; conditions: 5 µM
[6] = molecular target: T2, CB2 (h) (Homo sapiens, UniProt P34972); test: Cerep binding, agonist radioligand; conditions: read-out: % Inhibition of Control Specific Binding
T2 construct: purchased Eurofins Pharma Discovery Services (CEREP diversity panel)
T2 sequence (P34972 whole entry): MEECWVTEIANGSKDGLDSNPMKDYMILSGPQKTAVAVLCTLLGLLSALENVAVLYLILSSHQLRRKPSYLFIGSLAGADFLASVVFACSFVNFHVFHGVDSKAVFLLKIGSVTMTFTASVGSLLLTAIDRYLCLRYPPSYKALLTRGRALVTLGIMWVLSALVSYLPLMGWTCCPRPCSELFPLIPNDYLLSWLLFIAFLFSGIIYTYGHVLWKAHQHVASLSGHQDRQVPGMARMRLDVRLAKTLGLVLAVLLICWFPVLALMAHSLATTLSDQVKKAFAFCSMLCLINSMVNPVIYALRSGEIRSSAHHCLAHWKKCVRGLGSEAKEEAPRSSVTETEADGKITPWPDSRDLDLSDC

[7] = molecular target: T3, PDE3A (h) (Homo sapiens, UniProt Q14432); test: Cerep enzyme and cell-based assays; type: biochemical; conditions: read-out: % Inhibition of Control Values
T3 construct: Eurofins Pharma Discovery Services (CEREP diversity panel, outsourced assay)

[8] = molecular target: T4, NK3 (h) (Homo sapiens, UniProt P29371); test: Cerep binding, antagonist radioligand; conditions: read-out: % Inhibition of Control Specific Binding
T4 construct: purchased Eurofins Pharma Discovery Services (CEREP diversity panel)

[9] = system: Erk phosphorylation; test: western blot, Erk phosphorylation in Panc-Tu-I
Method: (§2) To examine whether PDEδ inhibition by Deltarasin and Deltazinone 1 downregulates the signal transduction via these pathways, we examined the phosphorylation of extracellular signal regulated kinase (Erk) and S6 Ribosomal Protein (S6P) in the oncogenic KRas-dependent Panc-Tu-1 and KRas-independent PANC-1 cells. […] Cells were lysed with RIPA-buffer (20 mM Tris pH 7.5, 150 mM NaCl, 0.5 mM Na2 EDTA, 1 % sodium deoxycholate, 0.1% sodium dodecyl sulfate, 1% IGEPAL supplemented with Complete Mini EDTA-free protease inhibitor (Roche Applied Science) and 1% phosphatase inhibitor cocktail 2 and 3 (P5726 and P0044, Sigma Aldrich), scraped off after 5 min on ice and centrifuged at 14,000g for 20 min at 4 °C. SDS–polyacrylamide gel electrophoresis was carried out with 10–25 μg of whole-cell lysate from each sample. The gels were blotted onto polyvinylidene difluoride membrane (Millipore) and blocked for 1 h at room temperature. […] Blots were scanned on a LI-COR Odyssey imaging system.
(§3) Western blots were quantified using ImageJ. The background of the blots was subtracted by applying the rolling ball subtraction with a radius of 50 pixels. Afterwards the integrated intensity of the bands was measured.

[10] = system: P2Y; test: Cerep binding, agonist radioligand; conditions: 5 µM
[11] = system: SKCa channel; test: Cerep binding, antagonist radioligand; conditions: 5 µM
[12] = molecular target: T5, CB1 (h) (Homo sapiens, UniProt P21554); test: Cerep binding, agonist radioligand; conditions: read-out: % Inhibition of Control Specific Binding
T5 construct: purchased Eurofins Pharma Discovery Services (CEREP diversity panel)
T5 sequence (P21554 whole entry): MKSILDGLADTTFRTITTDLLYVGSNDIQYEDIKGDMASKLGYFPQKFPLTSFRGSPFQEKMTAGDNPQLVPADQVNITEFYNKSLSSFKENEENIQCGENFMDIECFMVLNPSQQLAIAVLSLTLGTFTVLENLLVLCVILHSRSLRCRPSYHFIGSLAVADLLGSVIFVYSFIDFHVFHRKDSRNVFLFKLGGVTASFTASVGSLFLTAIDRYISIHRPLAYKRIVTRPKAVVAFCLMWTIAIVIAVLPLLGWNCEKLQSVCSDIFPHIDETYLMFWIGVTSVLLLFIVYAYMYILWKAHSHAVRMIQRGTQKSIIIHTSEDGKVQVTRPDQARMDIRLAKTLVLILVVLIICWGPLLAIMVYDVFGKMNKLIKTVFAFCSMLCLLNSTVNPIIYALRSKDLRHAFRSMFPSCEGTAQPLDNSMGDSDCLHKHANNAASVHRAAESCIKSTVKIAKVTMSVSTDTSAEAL

[13] = system: kainate; test: Cerep binding, agonist radioligand; conditions: 5 µM
[14] = system: P2X; test: Cerep binding, agonist radioligand; conditions: 5 µM
[15] = molecular target: T6, Eg5 (h) (Homo sapiens, UniProt P52732); test: Cerep enzyme and cell-based assays; type: biochemical; conditions: read-out: % Inhibition of Control Values
T6 construct: Eurofins Pharma Discovery Services (CEREP diversity panel, outsourced assay)

[16] = molecular target: T7, H1 (h) (Homo sapiens, UniProt P35367); test: Cerep binding, antagonist radioligand; conditions: read-out: % Inhibition of Control Specific Binding
T7 construct: purchased Eurofins Pharma Discovery Services (CEREP diversity panel)
T7 sequence (P35367 whole entry): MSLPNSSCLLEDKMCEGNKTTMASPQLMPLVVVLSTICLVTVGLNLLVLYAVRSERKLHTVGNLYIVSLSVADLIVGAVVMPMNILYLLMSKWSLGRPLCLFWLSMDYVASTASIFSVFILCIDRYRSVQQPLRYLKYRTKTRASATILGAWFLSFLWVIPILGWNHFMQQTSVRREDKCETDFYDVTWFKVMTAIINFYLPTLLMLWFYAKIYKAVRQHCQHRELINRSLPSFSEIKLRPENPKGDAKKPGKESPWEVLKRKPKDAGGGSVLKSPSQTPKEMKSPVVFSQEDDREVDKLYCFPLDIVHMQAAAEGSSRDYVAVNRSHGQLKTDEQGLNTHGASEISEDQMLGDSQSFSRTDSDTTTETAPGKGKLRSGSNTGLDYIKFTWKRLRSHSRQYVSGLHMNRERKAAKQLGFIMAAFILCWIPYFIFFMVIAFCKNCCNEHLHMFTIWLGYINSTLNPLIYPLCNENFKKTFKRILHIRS

[17] = molecular target: T8, PDE4D2 (h) (Homo sapiens, UniProt Q08499); test: Cerep enzyme and cell-based assays; type: biochemical; conditions: read-out: % Inhibition of Control Values
T8 construct: Eurofins Pharma Discovery Services (CEREP diversity panel, outsourced assay)
T8 sequence (Q08499 303-809 limits assumed): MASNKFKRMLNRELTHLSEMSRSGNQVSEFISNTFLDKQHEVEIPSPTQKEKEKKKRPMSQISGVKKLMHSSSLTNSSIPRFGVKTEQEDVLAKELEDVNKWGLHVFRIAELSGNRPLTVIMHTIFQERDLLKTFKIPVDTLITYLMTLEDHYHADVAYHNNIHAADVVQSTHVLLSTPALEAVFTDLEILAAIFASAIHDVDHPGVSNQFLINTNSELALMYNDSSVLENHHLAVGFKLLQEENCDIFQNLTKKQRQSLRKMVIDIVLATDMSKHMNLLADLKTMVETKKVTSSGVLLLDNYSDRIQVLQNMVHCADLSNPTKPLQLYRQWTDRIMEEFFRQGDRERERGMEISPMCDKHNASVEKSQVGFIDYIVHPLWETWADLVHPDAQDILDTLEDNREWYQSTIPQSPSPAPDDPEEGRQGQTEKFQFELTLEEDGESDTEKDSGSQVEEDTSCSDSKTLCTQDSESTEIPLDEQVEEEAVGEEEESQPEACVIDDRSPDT

[18] = system: alpha 2 (non-selective); test: Cerep binding, antagonist radioligand; conditions: 5 µM
[19] = molecular target: T9, V1a (h) (Homo sapiens, UniProt P37288); test: Cerep binding, agonist radioligand; conditions: read-out: % Inhibition of Control Specific Binding
T9 construct: purchased Eurofins Pharma Discovery Services (CEREP diversity panel)
T9 sequence (P37288 whole entry): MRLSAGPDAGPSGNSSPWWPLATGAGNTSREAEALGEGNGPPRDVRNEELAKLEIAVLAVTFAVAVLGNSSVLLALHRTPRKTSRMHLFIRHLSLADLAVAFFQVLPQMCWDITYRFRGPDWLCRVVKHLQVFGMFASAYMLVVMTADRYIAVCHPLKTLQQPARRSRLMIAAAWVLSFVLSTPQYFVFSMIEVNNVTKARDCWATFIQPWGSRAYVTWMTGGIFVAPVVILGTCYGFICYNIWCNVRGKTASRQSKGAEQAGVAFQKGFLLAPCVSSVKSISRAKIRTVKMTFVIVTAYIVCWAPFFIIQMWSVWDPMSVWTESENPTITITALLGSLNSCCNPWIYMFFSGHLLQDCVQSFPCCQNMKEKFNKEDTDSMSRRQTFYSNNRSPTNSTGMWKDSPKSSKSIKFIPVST

[20] = molecular target: T10, N neuronal alpha 4beta 2 (h) (Homo sapiens, UniProt P17787+P43681); test: Cerep binding, agonist radioligand; conditions: read-out: % Inhibition of Control Specific Binding
T10 construct: purchased Eurofins Pharma Discovery Services (CEREP diversity panel)

[21] = system: ER (non-selective) (h); test: Cerep binding, agonist radioligand; design: species or system human; conditions: 5 µM
[22] = molecular target: T11, 5-lipoxygenase (h) (Homo sapiens, UniProt P09917); test: Cerep enzyme and cell-based assays; type: biochemical; conditions: read-out: % Inhibition of Control Values
T11 construct: purchased Eurofins Pharma Discovery Services (CEREP diversity panel)

[23] = molecular target: T12, H3 (h) (Homo sapiens, UniProt Q9Y5N1); test: Cerep binding, agonist radioligand; conditions: read-out: % Inhibition of Control Specific Binding
T12 construct: purchased Eurofins Pharma Discovery Services (CEREP diversity panel)

[24] = molecular target: T13, B1 (h) (Homo sapiens, UniProt P46663); test: Cerep binding, agonist radioligand; conditions: read-out: % Inhibition of Control Specific Binding
T13 construct: purchased Eurofins Pharma Discovery Services (CEREP diversity panel)
T13 sequence (P46663 whole entry): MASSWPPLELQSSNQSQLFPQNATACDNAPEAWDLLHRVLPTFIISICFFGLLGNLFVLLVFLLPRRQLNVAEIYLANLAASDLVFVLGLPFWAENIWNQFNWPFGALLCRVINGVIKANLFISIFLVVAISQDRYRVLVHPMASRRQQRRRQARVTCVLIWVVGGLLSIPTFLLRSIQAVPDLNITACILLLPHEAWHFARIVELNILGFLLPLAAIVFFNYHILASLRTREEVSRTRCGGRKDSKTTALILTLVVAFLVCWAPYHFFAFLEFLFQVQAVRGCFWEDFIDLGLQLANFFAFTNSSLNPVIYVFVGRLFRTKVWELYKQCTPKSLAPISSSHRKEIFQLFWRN

[25] = system: KATP channel; test: Cerep binding, antagonist radioligand; conditions: 5 µM
[26] = molecular target: T14, norepinephrine transporter (h) (Homo sapiens, UniProt P23975); test: Cerep binding, antagonist radioligand; conditions: read-out: % Inhibition of Control Specific Binding
T14 construct: purchased Eurofins Pharma Discovery Services (CEREP diversity panel)

[27] = system: GABA transporter; test: Cerep binding, antagonist radioligand; conditions: 5 µM
[28] = system: S6P phosphorylation; test: western blot, S6P phosphorylation in PANC-1
Method: as §2, §3

[29] = molecular target: T15, EP2 (h) (Homo sapiens, UniProt P43116); test: Cerep binding, agonist radioligand; conditions: read-out: % Inhibition of Control Specific Binding
T15 construct: purchased Eurofins Pharma Discovery Services (CEREP diversity panel)
T15 sequence (P43116 whole entry): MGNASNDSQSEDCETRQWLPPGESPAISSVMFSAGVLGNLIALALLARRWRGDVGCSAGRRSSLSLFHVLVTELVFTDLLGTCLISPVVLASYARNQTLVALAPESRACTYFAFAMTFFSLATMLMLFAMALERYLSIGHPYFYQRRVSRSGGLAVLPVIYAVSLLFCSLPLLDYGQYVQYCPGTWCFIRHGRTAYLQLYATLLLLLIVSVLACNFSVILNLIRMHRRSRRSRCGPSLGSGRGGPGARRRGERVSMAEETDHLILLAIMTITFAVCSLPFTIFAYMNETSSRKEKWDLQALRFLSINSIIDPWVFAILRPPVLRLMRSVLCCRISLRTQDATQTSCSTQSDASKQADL

[30] = molecular target: T16, PDE1B (h) (Homo sapiens, UniProt Q01064); test: Cerep enzyme and cell-based assays; type: biochemical; conditions: read-out: % Inhibition of Control Values
T16 construct: purchased Eurofins Pharma Discovery Services (CEREP diversity panel)

[31] = molecular target: T17, CCK1 (CCKA) (h) (Homo sapiens, UniProt P32238); test: Cerep binding, agonist radioligand; conditions: read-out: % Inhibition of Control Specific Binding
T17 construct: purchased Eurofins Pharma Discovery Services (CEREP diversity panel)

[32] = molecular target: T18, AT1 (h) (Homo sapiens, UniProt P30556); test: Cerep binding, antagonist radioligand; conditions: read-out: % Inhibition of Control Specific Binding
T18 construct: purchased Eurofins Pharma Discovery Services (CEREP diversity panel)
T18 sequence (P30556 whole entry): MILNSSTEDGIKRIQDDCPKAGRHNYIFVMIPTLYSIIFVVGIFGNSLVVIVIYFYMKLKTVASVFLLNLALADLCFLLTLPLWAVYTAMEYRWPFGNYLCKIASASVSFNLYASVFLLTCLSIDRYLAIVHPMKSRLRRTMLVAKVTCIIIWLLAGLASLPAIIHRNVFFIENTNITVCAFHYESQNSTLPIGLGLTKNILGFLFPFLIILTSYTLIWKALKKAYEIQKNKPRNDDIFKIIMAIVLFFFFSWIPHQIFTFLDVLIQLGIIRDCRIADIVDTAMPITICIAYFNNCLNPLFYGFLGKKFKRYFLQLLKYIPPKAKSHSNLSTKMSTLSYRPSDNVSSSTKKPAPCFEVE

[33] = molecular target: T19, NK1 (h) (Homo sapiens, UniProt P25103); test: Cerep binding, agonist radioligand; conditions: read-out: % Inhibition of Control Specific Binding
T19 construct: purchased Eurofins Pharma Discovery Services (CEREP diversity panel)

[34] = molecular target: T20, V2 (h) (Homo sapiens, UniProt P30518); test: Cerep binding, agonist radioligand; conditions: read-out: % Inhibition of Control Specific Binding
T20 construct: purchased Eurofins Pharma Discovery Services (CEREP diversity panel)

[35] = molecular target: T21, HDAC3 (h) (Homo sapiens, UniProt O15379); test: Cerep enzyme and cell-based assays; type: biochemical; conditions: read-out: % Inhibition of Control Values
T21 construct: Eurofins Pharma Discovery Services (CEREP diversity panel, outsourced assay)

[36] = molecular target: T22, NK2 (h) (Homo sapiens, UniProt P21452); test: Cerep binding, agonist radioligand; conditions: read-out: % Inhibition of Control Specific Binding
T22 construct: purchased Eurofins Pharma Discovery Services (CEREP diversity panel)
T22 sequence (P21452 whole entry): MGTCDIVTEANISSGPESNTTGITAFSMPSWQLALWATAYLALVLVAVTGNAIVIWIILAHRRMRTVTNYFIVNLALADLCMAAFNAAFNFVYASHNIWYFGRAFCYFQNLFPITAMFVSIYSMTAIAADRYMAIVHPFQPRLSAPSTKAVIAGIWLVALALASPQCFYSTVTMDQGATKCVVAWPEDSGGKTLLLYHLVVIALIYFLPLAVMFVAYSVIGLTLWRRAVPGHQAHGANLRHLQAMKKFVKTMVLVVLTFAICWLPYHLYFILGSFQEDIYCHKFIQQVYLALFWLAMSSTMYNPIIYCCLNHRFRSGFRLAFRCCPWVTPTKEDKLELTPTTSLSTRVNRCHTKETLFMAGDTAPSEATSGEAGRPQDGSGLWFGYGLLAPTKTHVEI

[37] = system: I2; test: Cerep binding, antagonist radioligand; conditions: 5 µM
[38] = system: PCP; test: Cerep binding, antagonist radioligand; conditions: 5 µM
[39] = molecular target: T23, AR (h) (Homo sapiens, UniProt P10275, T878A); test: Cerep binding, agonist radioligand; conditions: read-out: % Inhibition of Control Specific Binding
T23 construct: purchased Eurofins Pharma Discovery Services (CEREP diversity panel)
T23 sequence (P10275 whole entry T878A): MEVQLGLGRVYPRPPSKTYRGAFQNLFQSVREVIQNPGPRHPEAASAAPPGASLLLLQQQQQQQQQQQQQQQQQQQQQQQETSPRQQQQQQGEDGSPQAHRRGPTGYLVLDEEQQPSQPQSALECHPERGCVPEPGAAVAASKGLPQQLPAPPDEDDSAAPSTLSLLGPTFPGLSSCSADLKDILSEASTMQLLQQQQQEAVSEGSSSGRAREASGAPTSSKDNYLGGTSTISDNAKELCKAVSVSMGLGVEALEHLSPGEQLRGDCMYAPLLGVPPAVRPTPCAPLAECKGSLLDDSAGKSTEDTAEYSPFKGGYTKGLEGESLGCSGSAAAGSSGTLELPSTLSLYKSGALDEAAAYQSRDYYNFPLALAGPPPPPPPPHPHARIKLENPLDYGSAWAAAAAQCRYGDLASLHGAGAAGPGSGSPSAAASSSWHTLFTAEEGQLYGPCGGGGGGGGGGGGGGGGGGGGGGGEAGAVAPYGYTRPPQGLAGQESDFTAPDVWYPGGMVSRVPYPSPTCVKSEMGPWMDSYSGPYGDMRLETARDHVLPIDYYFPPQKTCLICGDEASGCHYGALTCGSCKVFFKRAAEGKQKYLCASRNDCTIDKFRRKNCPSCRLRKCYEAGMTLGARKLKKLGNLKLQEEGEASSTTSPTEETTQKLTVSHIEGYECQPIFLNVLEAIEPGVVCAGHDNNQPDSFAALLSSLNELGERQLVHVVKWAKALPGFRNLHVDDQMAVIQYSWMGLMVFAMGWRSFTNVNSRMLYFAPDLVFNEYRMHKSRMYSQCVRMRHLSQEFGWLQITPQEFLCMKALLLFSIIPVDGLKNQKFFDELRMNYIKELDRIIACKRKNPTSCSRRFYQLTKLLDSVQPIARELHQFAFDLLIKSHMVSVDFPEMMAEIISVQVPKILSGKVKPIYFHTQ

[40] = 1 h, 5 μM Deltarasin or 20 μM Deltazinone 1, 5 min EGF

Row | Structure (SMILES) | inhibition at 5 µM [3] | % Inhibition of Control Values [4] | % Inhibition of Control Specific Binding [5] | inhibition at 5 µM [6] | inhibition at 5 µM [7] | inhibition at 5 µM [8] | EGF-induced Erk phosphorylation [9, 40] | % Inhibition of Control Specific Binding [10] | % Inhibition of Control Specific Binding [11] | inhibition at 5 µM [12] | % Inhibition of Control Specific Binding [13] | % Inhibition of Control Specific Binding [14] | inhibition at 5 µM [15] | inhibition at 5 µM [16] | inhibition at 5 µM [17] | % Inhibition of Control Specific Binding [18] | inhibition at 5 µM [19] | inhibition at 5 µM [20] | % Inhibition of Control Specific Binding [21] | inhibition at 5 µM [22] | other results
1 | Cc1ccc(-n2nc3c(=O)n(CCCC(=O)NCC(C)c4ccccc4)nc(C)c3c2C)cc1 (stereo not shown) [2k] | 59% | 3% | 4% | 12% | 1% | 17% | did not significantly affect | 16% | 0% | -12% | -6% | 1% | 3% | 2% | 3% | 3% | -4% | -8% | -15% | 1% | effect on growth ([1]; BxPC-3, doses up to 24 μM): little or no growth inhibitory effect; effect on growth ([2]; PANC-1, doses up to 24 μM): little or no growth inhibitory effect; EGF-induced Erk phosphorylation ([9]; 20 μM, longer incubation times (>3 h)): reduced; inhibition at 5 µM [23]: -10%; inhibition at 5 µM [24]: -4%; % Inhibition of Control Specific Binding [25]: 16%; inhibition at 5 µM [26]: 8%; % Inhibition of Control Specific Binding [27]: -1%; S6P phosphorylation ([28]; PANC-1, 20 μM, longer incubation times (>3 h)): remained unaffected; inhibition at 5 µM [29]: 6%; inhibition at 5 µM [30]: 7%; inhibition at 5 µM [31]: 22%; inhibition at 5 µM [32]: 9%; inhibition at 5 µM [33]: 3%; inhibition at 5 µM [34]: -4%; inhibition at 5 µM [35]: 0%; inhibition at 5 µM [36]: -4%; % Inhibition of Control Specific Binding [37]: 39%; % Inhibition of Control Specific Binding [38]: -8%; inhibition at 5 µM [39]: 5%
2 | c1ccc(Cn2c(-c3ccc(OC[C@H](C4CCNCC4)n4c(-c5ccccc5)nc5ccccc54)cc3)nc3ccccc32)cc1 [Deltarasin, reference compound] | 70% | 0% | 33% | 24% | 11% | 61% | reduced | 13% | 3% | 7% | 14% | 10% | 9% | 78% | 7% | 1% | 21% | -10% | -19% | 33% | concentration resulting in rapid cell death (unspecific cytotoxicity) ([1]; human): above 9 μM; concentration resulting in rapid cell death (unspecific cytotoxicity) ([2]; human): above 9 μM; inhibition at 5 µM [23]: -2%; inhibition at 5 µM [24]: 3%; % Inhibition of Control Specific Binding [25]: -10%; inhibition at 5 µM [26]: 70%; % Inhibition of Control Specific Binding [27]: 20%; EGF-induced S6P phosphorylation ([28]; PANC-1, 1 h, 5 μM Deltarasin, 5 min EGF): reduced in both lines; inhibition at 5 µM [29]: 28%; inhibition at 5 µM [30]: 12%; inhibition at 5 µM [31]: 58%; inhibition at 5 µM [32]: 41%; inhibition at 5 µM [33]: 89%; inhibition at 5 µM [34]: 20%; inhibition at 5 µM [35]: 23%; inhibition at 5 µM [36]: 97%; % Inhibition of Control Specific Binding [37]: 19%; % Inhibition of Control Specific Binding [38]: -6%; inhibition at 5 µM [39]: -23%
